According to patent US20160000080A1, “COMPOSITIONS CONTAINING ISOSORBIDE MONOESTER AND ALIPHATIC VICINAL DIOLS” (CLARIANT INTERNATIONAL LTD., priority 2011, published 2016):
Read-outs that look alike come from different tables or passages of the source.

Legend:
[1] = test system: Citrobacter freundii; test: Minimum inhibitory concentration (MIC) in agar; type: cell-based; conditions: Citrobacter freundii (B)
Description: (§1) Below, the antimicrobial efficacy of a composition according to the invention consisting of 50% by weight of isorbide caprylate 1 and 50% by weight of ethylhexylglycerin against bacteria, fungi and yeasts is examined (hereinbelow, the composition is referred to as “composition A”). For the tests with bacteria, composition A was diluted with butyl polyglycol and then, at 50° C., added to liquid CASO agar (casein-peptone agar) buffered to pH 7 (+/−0.2) in various concentrations (hereinbelow referred to as compositions B1, B2, etc.). For the tests with fungi and yeasts, composition A was diluted with butyl polyglycol and then added to liquid Sabouraud 4% dextrose agar buffered to pH 5.6 (+/−0.2) in various concentrations (hereinbelow referred to as compositions PH1, PH2, etc.). The compositions B1, B2, etc. and PH1, PH2 etc. were each poured into Petri dishes and each inoculated with identical amounts of bacteria, fungi and yeasts. The minimum inhibitory concentration (MIC) is the concentration at which inhibition of the growth of the bacteria, fungi and yeasts in the compositions B1, B2, etc. and PH1, PH2, etc. occurs.
(§2) The minimum inhibitory concentrations for the pure substances isosorbide caprylate 1 and ethylhexylglycerin were determined analogously.
(§3) The values determined for the minimum inhibitory concentrations “MIC mixture”, stated in Table 1 below, are based on the concentrations of composition A.
(§4) The values determined for the minimum inhibitory concentrations “QA” and “QB”, stated in Table 1 below, have already been corrected for the dilution effect of the butyl polyglycol.
(§5) From the minimum inhibitory concentrations determined, it is then possible to calculate whether a synergistic effect is present or not. Whether a synergistic effect is present is calculated according to F. C. Kull et al., Applied Microbiology 1961, 9, 538 using the formula below: […]
(§6) where • Qa is the minimum inhibitory concentration of isosorbide caprylate 1 in the mixture employed, • QA is the minimum inhibitory concentration of isosorbide caprylate 1, • Qb is the minimum inhibitory concentration of ethylhexylglycerin in the mixture employed and • QB is the minimum inhibitory concentration of ethylhexylglycerin.
(§7) The values for Qa and Qb are determined from the values for the mixtures (“MIC mixture”) by multiplying the minimum inhibitory concentrations determined for Qa with the factor 0.5 and for Qb with the factor 0.5, because of the proportions of the ingredients—50% by weight of isosorbide caprylate 1 and 50% by weight of ethylhexylglycerin—in composition A according to the invention examined.
(§8) If an SE value>1 is obtained, an antagonistic effect is present. If SE=1, the compounds are neutral with respect to one another, and if SE<1, a synergistic effect is present.
(§9) Analogously to the determination of the antimicrobial activity according to the above example B), the antimicrobial activity of a mixture comprising, firstly, 89.6% by weight of isosorbide dicaprylate and 9.4% by weight of isosorbide monocaprylate (remainder: 1% by weight) (hereinbelow referred to as “isosorbide dicaprylate”) and, secondly, pure isosorbide was determined in further test series.

[2] = test system: Aspergillus brasiliensis; test: Minimum inhibitory concentration (MIC) in agar; type: cell-based; conditions: Aspergillus brasiliensis (F)
Description: as §1, §2, §3, §4, §5, §6, §7, §8, §9

[3] = test system: Pseudomonas oleovorans; test: Minimum inhibitory concentration (MIC) in agar; type: cell-based; conditions: Pseudomonas oleovorans (B)
Description: as §1, §2, §3, §4, §5, §6, §7, §8, §9

[4] = test system: Candida albicans; test: Minimum inhibitory concentration (MIC) in agar; type: cell-based; conditions: Candida albicans (Y)
Description: as §1, §2, §3, §4, §5, §6, §7, §8, §9

[5] = test system: Escherichia coli; test: Minimum inhibitory concentration (MIC) in agar; type: cell-based; conditions: Escherichia coli (B)
Description: as §1, §2, §3, §4, §5, §6, §7, §8, §9

[6] = test system: Klebsiella pneumoniae; test: Minimum inhibitory concentration (MIC) in agar; type: cell-based; conditions: Klebsiella pneumoniae (B)
Description: as §1, §2, §3, §4, §5, §6, §7, §8, §9

[7] = test system: Aspergillus terreus; test: Minimum inhibitory concentration (MIC) in agar; type: cell-based; conditions: Aspergillus terreus (F)
Description: as §1, §2, §3, §4, §5, §6, §7, §8, §9

[8] = test system: Enterobacter aerogenes; test: Minimum inhibitory concentration (MIC) in agar; type: cell-based; conditions: Enterobacter aerogenes (B)
Description: as §1, §2, §3, §4, §5, §6, §7, §8, §9

[9] = test system: Staphylococcus aureus; test: Minimum inhibitory concentration (MIC) in agar; type: cell-based; conditions: Staphylococcus aureus (B)
Description: as §1, §2, §3, §4, §5, §6, §7, §8, §9

[10] = test system: Pseudomonas aeruginosa; test: Minimum inhibitory concentration (MIC) in agar; type: cell-based; conditions: Pseudomonas aeruginosa (B)
Description: as §1, §2, §3, §4, §5, §6, §7, §8, §9

[11] = test system: Penicillium funicolosium; test: Minimum inhibitory concentration (MIC) in agar; type: cell-based; conditions: Penicillium funicolosium (F)
Description: as §1, §2, §3, §4, §5, §6, §7, §8, §9

[12] = test system: Proteus vulgaris; test: Minimum inhibitory concentration (MIC) in agar; type: cell-based; conditions: Proteus vulgaris (B)
Description: as §1, §2, §3, §4, §5, §6, §7, §8, §9

[13] = test system: Fusarium solani; test: Minimum inhibitory concentration (MIC) in agar; type: cell-based; conditions: Fusarium solani (F)
Description: as §1, §2, §3, §4, §5, §6, §7, §8, §9

[14] = test system: Penicillium minioluteum; test: Minimum inhibitory concentration (MIC) in agar; type: cell-based; conditions: Penicillium minioluteum (F)
Description: as §1, §2, §3, §4, §5, §6, §7, §8, §9

[15] = test system: bacteria, fungi and yeasts; test: Antimicrobial efficacy, overall statements; type: cell-based
Description: Below, the antimicrobial efficacy of a composition according to the invention consisting of 50% by weight of isorbide caprylate 1 and 50% by weight of ethylhexylglycerin against bacteria, fungi and yeasts is examined (hereinbelow, the composition is referred to as “composition A”). For the tests with bacteria, composition A was diluted with butyl polyglycol and then, at 50° C., added to liquid CASO agar (casein-peptone agar) buffered to pH 7 (+/−0.2) in various concentrations (hereinbelow referred to as compositions B1, B2, etc.). For the tests with fungi and yeasts, composition A was diluted with butyl polyglycol and then added to liquid Sabouraud 4% dextrose agar buffered to pH 5.6 (+/−0.2) in various concentrations (hereinbelow referred to as compositions PH1, PH2, etc.). […]
as §2, §9

[16] = test system: bacteria, fungi and yeasts; conditions: general statement, no test described, cited from earlier work
[17] = MIC mixture x factor 0.5 (composition A)
[18] = Sabouraud 4% dextrose agar pH 5.6 (+/-0.2)
[19] = CASO agar pH 7 (+/-0.2), read-out: minimum inhibitory concentration (MIC), meas.
[20] = Sabouraud 4% dextrose agar pH 5.6 (+/-0.2), read-out: minimum inhibitory concentration (MIC), meas.

CCCCC(CC)COCC(O)CO (stereo not shown) [ethylhexylglycerin]
minimum inhibitory concentration (MIC), meas. ([1]; CASO agar pH 7 (+/-0.2)): 1500 ppm
minimum inhibitory concentration of the component in the mixture employed (Qa / Qb), calc. [1, 17]: 750 ppm
minimum inhibitory concentration of the component in the mixture employed (Qa / Qb), calc. [2, 17]: 375 ppm
minimum inhibitory concentration (MIC), meas. [2, 18]: 1000 ppm
minimum inhibitory concentration (MIC), meas. ([3]; CASO agar pH 7 (+/-0.2)): 5000 ppm
minimum inhibitory concentration of the component in the mixture employed (Qa / Qb), calc. [3, 17]: 5000 ppm
minimum inhibitory concentration of the component in the mixture employed (Qa / Qb), calc. [4, 17]: 375 ppm
minimum inhibitory concentration (MIC), meas. [4, 18]: 1000 ppm
minimum inhibitory concentration (MIC), meas. ([5]; CASO agar pH 7 (+/-0.2)): 1000 ppm
minimum inhibitory concentration of the component in the mixture employed (Qa / Qb), calc. [5, 17]: 750 ppm
minimum inhibitory concentration (MIC), meas. ([6]; CASO agar pH 7 (+/-0.2)): 2000 ppm
minimum inhibitory concentration of the component in the mixture employed (Qa / Qb), calc. [6, 17]: 1000 ppm
minimum inhibitory concentration of the component in the mixture employed (Qa / Qb), calc. [7, 17]: 250 ppm
minimum inhibitory concentration (MIC), meas. [7, 18]: 1000 ppm
minimum inhibitory concentration (MIC), meas. ([8]; CASO agar pH 7 (+/-0.2)): 2000 ppm
minimum inhibitory concentration of the component in the mixture employed (Qa / Qb), calc. [8, 17]: 2500 ppm
minimum inhibitory concentration (MIC), meas. ([9]; CASO agar pH 7 (+/-0.2)): 750 ppm
minimum inhibitory concentration of the component in the mixture employed (Qa / Qb), calc. [9, 17]: 500 ppm
minimum inhibitory concentration (MIC), meas. ([10]; CASO agar pH 7 (+/-0.2)): 5000 ppm
minimum inhibitory concentration of the component in the mixture employed (Qa / Qb), calc. [10, 17]: 2500 ppm
minimum inhibitory concentration of the component in the mixture employed (Qa / Qb), calc. [11, 17]: 125 ppm
minimum inhibitory concentration (MIC), meas. [11, 18]: 500 ppm
minimum inhibitory concentration (MIC), meas. ([12]; CASO agar pH 7 (+/-0.2)): 1500 ppm
minimum inhibitory concentration of the component in the mixture employed (Qa / Qb), calc. [12, 17]: 750 ppm
minimum inhibitory concentration of the component in the mixture employed (Qa / Qb), calc. [13, 17]: 125 ppm
minimum inhibitory concentration (MIC), meas. [13, 18]: 500 ppm
minimum inhibitory concentration of the component in the mixture employed (Qa / Qb), calc. [14, 17]: 250 ppm
minimum inhibitory concentration (MIC), meas. [14, 18]: 750 ppm

isosorbide monocaprylate
antimicrobial activity (in words) ([15]; concluded from the MICs of isosorbide caprylate 1 and of its other constituents): significant antimicrobial activity

CCCCCCCC(=O)O [caprylic acid]
antimicrobial activity (in words) ([16]; at a pH of 6 or above): no antimicrobial activity
antimicrobial efficacy (in words) [16]: antimicrobially effective

O[C@@H]1CO[C@H]2[C@@H]1OC[C@@H]2O [isosorbide]
MIC [1, 19]: 10000 µg/mL
MIC [2, 20]: 10000 µg/mL
MIC ([3]; Ectopseudomonas oleovorans, CASO agar pH 7 (+/-0.2), read-out: minimum inhibitory concentration (MIC), meas.): 10000 µg/mL
MIC [4, 20]: 10000 µg/mL
MIC [5, 19]: 10000 µg/mL
MIC [6, 19]: 10000 µg/mL
MIC [7, 20]: 10000 µg/mL
MIC ([8]; Klebsiella aerogenes, CASO agar pH 7 (+/-0.2), read-out: minimum inhibitory concentration (MIC), meas.): 10000 µg/mL
MIC [9, 19]: 10000 µg/mL
MIC [10, 19]: 10000 µg/mL
MIC [11, 20]: 10000 µg/mL
MIC [12, 19]: 10000 µg/mL
MIC [13, 20]: 10000 µg/mL
MIC ([14]; Talaromyces minioluteus, Sabouraud 4% dextrose agar pH 5.6 (+/-0.2), read-out: minimum inhibitory concentration (MIC), meas.): 10000 µg/mL
antimicrobial activity (in words) ([15]; summary of the results of Table 2): neither isosorbide nor isosorbide dicaprylate are antimicrobially active
